Reference: article PMC8949771, “Gold(I)-Mediated Rapid Cyclization of Propargylated Peptides via Imine Formation” (Journal of the American Chemical Society, 2022)

Tested on: HeLa cells
Assay: Live-cell uptake, confocal microscopy
Assay type: cell-based
Conditions: 2.5 μM, 1 h incubation, FITC signal, repeated in duplicates
Protocol: With both peptides in hand (5 and 6, Figure 7A), we investigated the binding efficiency using our fluorescence-based competitive assay.[38] […] Encouraged by these in vitro results, we explored the cellular uptake and apoptosis efficacy of the new cyclic peptide in living cells. To investigate the live cell delivery efficacy of the FITC-labeled peptides (9 and 10), both cyclic peptides were incubated for 1h with HeLa cells at different concentrations of 2.5, 5, 7, and 10 μM. […] After assessing the cellular uptake, we probed the controlled cell death or apoptosis in HeLa cells using only 2.5 μM peptides (3 and 5) and the known proteasome inhibitor MG-132 as a positive control. […] (Figure 7E).
To investigate the cellular delivery efficiency of the new cyclic peptide HeLa (CCL-2™) cells were seeded on ibidi poly-L-lysine (PLL) 8 well µ-slides in […] and were allowed to reach […]
~90% confluency over 24h. Cells were washed three times with warm PBS and serum-free DMEM (high glucose) followed by incubation for 1h with warm PBS/serum-free medium containing containing 2.5, 5, and 10 µM of fluorescently labeled cyclic peptides (9 and 10). Cells were then washed three times with warm PBS followed by adding 0.1 mg/ml heparin sulfate in PBS and incubating for 5min. […]

CC1=NCC(=O)N[C@@H](Cc2c[nH]c3ccccc23)C(=O)N[C@@H](Cc2ccccc2)C(=O)N[C@@H](CC(=O)O)C(=O)N[C@@H](CC(=O)O)C(=O)N[C@@H](CC(C)C)C(=O)N[C@@H](Cc2ccc(O)cc2)C(=O)N[C@@H](Cc2c[nH]c3ccccc23)C(=O)N[C@@H](Cc2ccccc2)C(=O)N[C@@H](C(C)C)C(=O)N[C@@H](C)C(=O)N[C@@H](Cc2ccc(O)cc2)C(=O)N(CC(=O)N[C@@H](C)C(=O)N[C@@H](CSC2CC(=O)N(c3ccc4c(c3)C(=O)OC43c4ccc(O)cc4Oc4cc(O)ccc43)C2=O)C(N)=O)C1 (stereo partly shown) [Peptide 10]
cellular uptake (fluorescence in cells): significant fluorescence
